# Reference: patent US7053113B2, “Mannich base prodrugs of 3-(pyrrol-2-yl-methylidene)-2-indolinone derivatives” (Sugen, Inc., priority 2000, dated 2006)
# Tests used:
# [1] = Plasma Stability Test: conversion of prodrug to drug after IV administration to dogs; format: in vivo; settings: IV at 2 mg/mL, HPLC analysis of blood plasma for 4 hours following dosing
# Experimental: The prodrug (3Z)-3-[(3,5-dimethyl-1H-pyrrol-2-yl)-methylidene]-1-(1-pyrrolidinylmethyl)-1,3-dihydro-2H-indol-2-one was administered IV at 2 mg/mL to dogs. Levels of both prodrug and drug (3(Z)-3-[(3,5-dimethyl-1H-pyrrol-2-yl)-methylidene]-1,3-dihydro-2H-indol-2-one) were followed by HPLC analysis of blood plasma for 4 hours following dosing.
# [2] = Aqueous solubility of the prodrug compared with the parent compound; format: physicochemical; settings: compared with parent compound (II)
structure (smiles),measurement,setting,value
"Cc1cc(C)c(/C=C2\C(=O)N(CN3CCCC3)c3ccccc32)[nH]1 [Example 2, (3Z)-3-[(3,5-dimethyl-1H-pyrrol-2-yl)-methylidene]-1-(1-pyrrolidinylmethyl)-1,3-dihydro-2H-indol-2-one]",prodrug converted into drug (area under the curve of drug concentration vs time),[1],80%
same,aqueous solubility over the parent compound,[2],increased aqueous solubility
